Results taken from patent US20250040554A1, “NEW USES OF PHENMEDIPHAM AND HERBICIDAL COMBINATIONS COMPRISING PHENMEDIPHAM” (BAYER AKTIENGESELLSCHAFT, priority 2021, published 2025).

Tests used:
Assay type in all cases: in vivo
Conditions in all cases: 20 g/ha, 15 DAA
[1] = test system: KCHSC=Kochia scoparia; test: Weed control field trial KCHSC
Description: (§1) The respective (combinations of) materials were applied to weed plants in the greenhouse or in the field at the respective growth stage indicated hereinafter for the different weed species mentioned below. The respective (combinations of) active ingredients were also applied to corn, cotton and soybean crop plants, and the selectivity (damage) in these crop plants rated (assessed).
(§2) Visual scoring of the damage to the trial plants took place after the time mentioned in the respective Table—indicated in number of Days After Application (DAA). Damage and development of all above-ground parts of the respective plants was recorded. Visual rating was done on a percentage scale in relation to the untreated control (100%=all plants dead; 50%=green plant biomass reduced by 50%, and 0%=no discernible difference=like control plot).
(§3) wherein • A, B=respective value in percent of active ingredient A at a dose rate of a g/ha, ingredient B at a dose rate of b g/ha • E^C=Expected value according to Colby (S. R. Colby; Weeds 15 (1967), 20-22) in % at a dose rate of a+b, each in g/ha • Δ=Difference (in %) between measured value E and expected value E^C (%) (measured value minus expected value)
(§4) After the harmful plants had emerged, they were treated, at the respective growth stage indicated, with the respective materials as indicated at a water application rate of 187 L/ha.
(§5) After the treatment (15 days after the treatment), the herbicidal activity of respective material was scored visually at the same time by comparing the differently treated plots with the untreated control plots. The score figures of the different plots were averaged.
(§6) The dose rates of herbicidal ingredients used in each case are indicated for the respective active ingredient and refer to the amount of active ingredient per hectare (g/ha).
(§7) The weed control activity of different (combinations of) herbicidal active ingredients was investigated in field trials for the following weed species: • AMARE=Amaranthus retroflexus • KCHSC=Kochia scoparia • PANRA=Panicum ramosum
(§8) The growth stage of AMARE was BBCH 19, the growth stage of KCHSC was BBCH 19 and the growth stage of PANRA was BBCH 22 at the time of application of the respective material.
(§9) Phenmedipham and the respective aroylcyclohexanedione herbicide were applied at varying application rates (Dose Rate) to the different species of weed plants. The results are shown in Tables 4a to 4d as the % control when assessed 15 days after application (DAA), respectively.
(§10) In all the trials of Tables 4a to 4d Mero® (rapeseed oil methyl ester) was added to the respective spray mixture in an amount corresponding to 1 L/ha for PMP, 1 L/ha for the respective aroylcyclohexanedione herbicide, and 2 L/ha for mixtures of PMP+the respective aroylcyclohexanedione herbicide.

[2] = test system: AMARE=Amaranthus retroflexus; test: Weed control field trial AMARE
Description: as §1, §2, §3, §4, §5, §6, §7, §8, §9, §10

[3] = test system: PANRA=Panicum ramosum; test: Weed control field trial PANRA
Description: as §1, §2, §3, §4, §5, §6, §7, §8, §9, §10

Row | Compound | % control KCHSC [1] | % control AMARE [2] | % control PANRA [3]
1 | CS(=O)(=O)c1ccc(C(=O)C2C(=O)CCCC2=O)c(Cl)c1COCC(F)(F)F [TBT, 2-{2-chloro-4-(methylsulfonyl)-3-[(2,2,2-trifluoroethoxy)methyl]benzoyl}cyclohexane-1,3-dione] | 20% | 35% | 20%
2 | CS(=O)(=O)c1ccc(C(=O)C2C(=O)CCCC2=O)c(Cl)c1 [SCT, 2-[2-chloro-4-(methylsulfonyl)benzoyl]cyclohexane-1,3-dione] | 5% | 5% | –
